Here are results for 2 substances from patent US8846898B2, “Phosphinoamidite carboxylates and analogs thereof in the synthesis of oligonucleotide having reduced internucleotide charge” (Lieure Cornu LLC, priority 2000, dated 2014).

[pace] = phosphonoacetate internucleotide linkage

One data set addresses DNase I (Bos taurus, UniProt P00639).
The test system of data set [1] is Phosphodiesterase I from Crotalus adamanteu (snake venom phosphodiesterase).
The next data set addresses E. coli RNaseH1 (Escherichia coli, UniProt P0A7Y4). The data set is described as follows: Hydrolysis of RNA heteroduplexes with E. coli RNaseH1. Type of data set: biochemical. The settings on record: 5′-32P RNA, two units RNaseH1, four hours at 37° C.

Chain of DNase I (P00639 23-282): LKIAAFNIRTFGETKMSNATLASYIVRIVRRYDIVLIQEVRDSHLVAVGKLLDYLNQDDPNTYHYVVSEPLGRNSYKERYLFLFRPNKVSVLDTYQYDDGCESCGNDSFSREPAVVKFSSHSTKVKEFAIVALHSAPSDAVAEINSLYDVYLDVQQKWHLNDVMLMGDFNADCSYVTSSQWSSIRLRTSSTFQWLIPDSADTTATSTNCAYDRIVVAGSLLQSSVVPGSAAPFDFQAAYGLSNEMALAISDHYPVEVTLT
Chain of E. coli RNaseH1 (P0A7Y4 whole entry): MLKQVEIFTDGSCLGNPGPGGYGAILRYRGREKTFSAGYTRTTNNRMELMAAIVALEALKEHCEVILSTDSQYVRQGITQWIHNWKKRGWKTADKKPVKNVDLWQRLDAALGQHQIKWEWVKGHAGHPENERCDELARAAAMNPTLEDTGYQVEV
Experimental for DNase I: Radiolabeling of Oligodeoxynucleotides: ODNs were 5′ end-labeled using γ-^32P ATP and T4 polynucleotide kinase (Wu et al., “Purification and Sequence Analysis of Synthetic Oligodeoxyribonucleotides,” in Oligonucleotide Synthesis: A Practical Approach, Gait, Ed. (Oxford University Press, 1990)). […] The radiolabeled ODNs were purified by gel electrophoresis and ethanol precipitation.
Endonuclease Stability: Endonuclease digestion experiments were carried out using DNase I (Boehringer-Mannheim). The assays were performed using a mixture of oligodeoxynucleotide labeled with ^32P at the 5′-end (100,000 cpm) and unlabeled oligodeoxynucleotide (40 pmol) in a buffer containing 40 mM Tris-HCl, pH 7.5, 6 mM MgCl2. Slight excess of the complementary DNA strand (1.2 eq.) was added and the mixture was heated to 95° C. for 5 minutes then chilled on ice for 30 minutes. Enzyme was added to a final concentration of 1 unit/μl (40 μl total reaction volume). The reaction mixture was overlayed with 25 μl of mineral oil and incubated at 37° C. Aliquots (3.5 μl) were removed and quenched by adding 7M urea in TBE buffer (12 μl) and heating to 95° C. for 5 minutes. […]
The mixtures were heated to 95° C. for 5 minutes followed by slow cooling and incubation on ice for 30 minutes. The mixture was equilibrated to room temperature, DNase I added, and the reaction monitored as a function of time. […]

On to “phosphonoacetate ODN: 18-mer mixed sequence ODN 5′-CTCAAGTGGGCTGGTGAC-3′ containing internucleotide phosphonoacetate linkages (DNA, all [pace], methylation of C not given here)”, for which the “degradation / hydrolysis products observed on incubation with DNase I” value with DNase I is “no degradation products”. In addition, in data set [1], the “degradation / hydrolysis products observed on exposure to SVP” value is “No detectable degradation products”. For the same substance, the “RNA degraded (converted to hydrolysis products) in the presence of the oligonucleotide and RNaseH1” value with E. coli RNaseH1 was “approximately 66%”.

As to “phosphodiester ODN: 18-mer mixed sequence ODN 5′-CTCAAGTGGGCTGGTGAC-3′ containing internucleotide phosphodiester linkages (unmodified DNA) (unmodified DNA) [reference compound]”, in the data set with DNase I, the “time to complete degradation by DNase I” value is not above 1 h.
